Molecular target: T1, RON kinase (Homo sapiens, UniProt Q04912)
T1 construct: purchased Caliper Life Sciences
Test: RON kinase biochemical mobility shift assay (Caliper Desktop Profiler)
Conditions: RON kinase inhibition
Protocol: The Aurora assays described here are performed on two Caliper Life Sciences systems: the LC3000 and the Desktop Profiler. The RON kinase assays are performed on the Desktop Profiler only. These provide data on enzyme activity via measurement of the relative amounts of phosphorylated or unphosphorylated fluorescently labelled substrate peptide at the end of an enzymatic reaction. These different states of peptide are resolved by applying a potential difference across the sample. The presence of the charged phosphate group on the product (as opposed to the substrate) causes a different peptide mobility between the two peptides. This is visualized by excitation of the fluorescent label on the substrate and product peptides and represented as peaks within the analysis software.
The Desktop Profiler utilizes the same priniciple as the LC3000 for calculating percentage conversion of a substrate to product. Caliper Life Sciences provides proprietary flash frozen pre-made 384 well plates containing selected kinases. Each column in the 384 well plate contains a particular selected kinase. A second plate, the ‘substrate plate’ contains a mix of fluorescently labeled peptide substrate and ATP. These are arranged in columns so that transfer for substrate plate to enzyme plate provides the correct enzyme with the correct substrate/ATP concentration. Compounds are added to a thawed enzyme plate in the desired format, in single concentrations. Reactions are initiated by transfer of the substrate/ATP mix from the substrate plate. The enzyme plate is incubated for 90 minutes at 25 C. The reaction is stopped by addition of 70 ul of Stop Buffer (100 mM HEPES pH 7.5, 0.015% Brij-35, 10 mM EDTA (Sigma, E7889)).
Reading of the plate in the Profiler is identical to the LC3000, and the ratio between substrate and product peaks provides the activity of the enzyme in that well. This is best represented by a plate heat map which colors each well by percent inhibition as compared to positive and negative controls (no inhibitors and no ATP respectively).

T1 sequence (Q04912 25-1400): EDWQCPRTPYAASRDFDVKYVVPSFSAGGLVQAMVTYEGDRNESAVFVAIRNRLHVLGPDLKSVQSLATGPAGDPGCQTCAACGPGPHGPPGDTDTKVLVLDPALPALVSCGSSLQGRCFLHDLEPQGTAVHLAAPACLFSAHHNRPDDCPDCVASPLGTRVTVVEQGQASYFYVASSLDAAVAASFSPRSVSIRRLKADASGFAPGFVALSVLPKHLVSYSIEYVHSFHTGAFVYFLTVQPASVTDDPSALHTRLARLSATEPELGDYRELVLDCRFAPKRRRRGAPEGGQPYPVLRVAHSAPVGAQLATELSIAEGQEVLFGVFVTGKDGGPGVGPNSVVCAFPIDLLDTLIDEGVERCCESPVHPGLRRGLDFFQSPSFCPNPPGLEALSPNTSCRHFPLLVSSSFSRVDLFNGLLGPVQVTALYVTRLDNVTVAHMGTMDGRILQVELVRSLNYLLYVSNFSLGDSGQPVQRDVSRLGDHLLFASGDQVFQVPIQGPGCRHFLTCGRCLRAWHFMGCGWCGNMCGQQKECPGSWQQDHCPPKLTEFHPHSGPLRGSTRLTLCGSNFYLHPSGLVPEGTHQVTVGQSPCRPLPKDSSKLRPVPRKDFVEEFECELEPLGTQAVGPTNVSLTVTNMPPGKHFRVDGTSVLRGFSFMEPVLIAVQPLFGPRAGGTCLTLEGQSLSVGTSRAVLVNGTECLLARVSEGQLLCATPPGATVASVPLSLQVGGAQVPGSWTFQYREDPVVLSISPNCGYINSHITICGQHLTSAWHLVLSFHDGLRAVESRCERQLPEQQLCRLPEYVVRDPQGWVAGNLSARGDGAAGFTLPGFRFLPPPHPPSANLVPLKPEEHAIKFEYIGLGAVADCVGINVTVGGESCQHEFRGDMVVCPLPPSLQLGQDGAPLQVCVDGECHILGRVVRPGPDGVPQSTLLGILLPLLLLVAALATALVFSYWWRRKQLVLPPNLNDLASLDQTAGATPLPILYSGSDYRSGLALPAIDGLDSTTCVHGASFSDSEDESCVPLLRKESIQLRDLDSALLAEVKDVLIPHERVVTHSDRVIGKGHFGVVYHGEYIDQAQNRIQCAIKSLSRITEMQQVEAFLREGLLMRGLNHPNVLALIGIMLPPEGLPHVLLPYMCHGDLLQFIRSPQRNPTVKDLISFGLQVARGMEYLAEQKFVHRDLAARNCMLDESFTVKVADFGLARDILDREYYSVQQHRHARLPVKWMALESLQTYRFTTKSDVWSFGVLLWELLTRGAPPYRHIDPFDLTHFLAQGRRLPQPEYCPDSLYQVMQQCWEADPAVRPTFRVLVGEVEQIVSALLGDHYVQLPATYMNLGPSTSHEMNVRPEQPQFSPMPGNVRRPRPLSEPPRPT

Structure (SMILES)	IC50
O=C(Nc1ccc(Oc2ccnc3c2C2OCCCN2C(=O)N3)c(F)c1)c1cccn(-c2ccc(F)cc2)c1=O (centres unmarked) [Example 76, N-{3-fluoro-4-[(6-oxo-3,4,7,11b-tetrahydro-2H,6H-pyrido[2′,3′:4,5]pyrimido[6,1-b][1,3]oxazin-11-yl)oxy]phenyl}-1-(4-fluorophenyl)-2-oxo-1,2-dihydropyridine-3-carboxamide]	10 to 100 nM
CCN1Cc2c(Oc3ccc(NC(=O)c4cccn(-c5ccc(F)cc5)c4=O)cc3F)ccnc2NC1=O [Example 84, N-{4-[(3-ethyl-2-oxo-1,2,3,4-tetrahydropyrido[2,3-d]pyrimidin-5-yl)oxy]-3-fluorophenyl}-1-(4-fluorophenyl)-2-oxo-1,2-dihydropyridine-3-carboxamide]	< 10 nM
O=C(Nc1ccc(Oc2ccnc3c2CN(CC(F)(F)F)C(=O)N3)c(F)c1)c1cccn(-c2ccc(F)cc2)c1=O [Example 85, N-(3-fluoro-4-{[2-oxo-3-(2,2,2-trifluoroethyl)-1,2,3,4-tetrahydropyrido[2,3-d]pyrimidin-5-yl]oxy}phenyl)-1-(4-fluorophenyl)-2-oxo-1,2-dihydropyridine-3-carboxamide]	10 to 100 nM
O=C1NCc2c(Oc3ccc(NC(=O)c4cccc(C(F)(F)F)c4F)cc3F)ccnc2N1 [Example 94, 2-fluoro-N-{3-fluoro-4-[(2-oxo-1,2,3,4-tetrahydropyrido[2,3-d]pyrimidin-5-yl)oxy]phenyl}-3-(trifluoromethyl)benzamide]	10 to 100 nM
N#Cc1cccc(C(=O)Nc2ccc(Oc3ccnc4c3CNC(=O)N4)c(F)c2)c1 [Example 95, 3-cyano-N-{3-fluoro-4-[(2-oxo-1,2,3,4-tetrahydropyrido[2,3-d]pyrimidin-5-yl)oxy]phenyl}benzamide]	10 to 100 nM
COc1cccc(C(=O)Nc2ccc(Oc3ccnc4c3CNC(=O)N4)c(F)c2)c1 [Example 96, N-{3-fluoro-4-[(2-oxo-1,2,3,4-tetrahydropyrido[2,3-d]pyrimidin-5-yl)oxy]phenyl}-3-methoxybenzamide]	10 to 100 nM
Cc1cccc(C(=O)Nc2ccc(Oc3ccnc4c3CNC(=O)N4)c(F)c2)c1 [Example 97, N-{3-fluoro-4-[(2-oxo-1,2,3,4-tetrahydropyrido[2,3-d]pyrimidin-5-yl)oxy]phenyl}-3-methylbenzamide]	10 to 100 nM
O=C1NCc2c(Oc3ccc(NC(=O)c4cccc(F)c4)cc3F)ccnc2N1 [Example 98, 3-fluoro-N-{3-fluoro-4-[(2-oxo-1,2,3,4-tetrahydropyrido[2,3-d]pyrimidin-5-yl)oxy]phenyl}benzamide]	10 to 100 nM
O=C1NCc2c(Oc3ccc(NC(=O)c4ccc(Br)cc4)cc3F)ccnc2N1 [Example 99, 4-bromo-N-{3-fluoro-4-[(2-oxo-1,2,3,4-tetrahydropyrido[2,3-d]pyrimidin-5-yl)oxy]phenyl}benzamide]	< 10 nM
Cc1ccc(Nc2ccnc3c2CNC(=O)N3)cc1Br [Example 194, 5-(3-Bromo-4-methyl-phenylamino)-3,4-dihydro-1H-pyrido[2,3-d]pyrimidin-2-one]	100 to 1000 nM
O=C1NCc2c(Nc3ccc(OC(F)(F)F)c(Br)c3)ccnc2N1 [Example 195, 5-(3-Bromo-4-trifluoromethoxy-phenylamino)-3,4-dihydro-1H-pyrido[2,3-d]pyrimidin-2-one]	100 to 1000 nM
CCN1Cc2c(Oc3ccc(NC(=O)Nc4cc([N+](=O)[O-])ccc4F)cc3F)ccnc2NC1=O [Example 258, 1-[4-(3-Ethyl-2-oxo-1,2,3,4-tetrahydro-pyrido[2,3-d]pyrimidin-5-yloxy)-3-fluoro-phenyl]-3-(2-fluoro-5-nitro-phenyl)-urea]	100 to 1000 nM
CCN1Cc2c(Oc3ccc(NC(=O)Nc4ccc5c(c4)OCO5)cc3F)ccnc2NC1=O [Example 263, 1-Benzo[1,3]dioxol-5-yl-3-[4-(3-ethyl-2-oxo-1,2,3,4-tetrahydro-pyrido[2,3-d]pyrimidin-5-yloxy)-3-fluoro-phenyl]-urea]	10 to 100 nM
CCN1Cc2c(Oc3ccc(NC(=O)Nc4ccc(Cl)nc4)cc3F)ccnc2NC1=O [Example 264, 1-(6-Chloro-pyridin-3-yl)-3-[4-(3-ethyl-2-oxo-1,2,3,4-tetrahydro-pyrido[2,3-d]pyrimidin-5-yloxy)-3-fluoro-phenyl]-urea]	100 to 1000 nM

Results, then the compound that gave them:

IC50	Structure (SMILES)
100 to 1000 nM	CCN1Cc2c(Oc3ccc(NC(=O)Nc4c(-c5ccccc5)noc4C)cc3F)ccnc2NC1=O [Example 266, 1-[4-(3-Ethyl-2-oxo-1,2,3,4-tetrahydro-pyrido[2,3-d]pyrimidin-5-yloxy)-3-fluoro-phenyl]-3-(5-methyl-3-phenyl-isoxazol-4-yl)-urea]
10 to 100 nM	CCN1Cc2c(Oc3ccc(NC(=O)Nc4cc(C)cs4)cc3F)ccnc2NC1=O [Example 267, 1-[4-(3-Ethyl-2-oxo-1,2,3,4-tetrahydro-pyrido[2,3-d]pyrimidin-5-yloxy)-3-fluoro-phenyl]-3-(4-methyl-thiophen-2-yl)-urea]
10 to 100 nM	CCN1Cc2c(Oc3ccc(NC(=O)Nc4cc(C)oc4C(F)(F)F)cc3F)ccnc2NC1=O [Example 268, 1-[4-(3-Ethyl-2-oxo-1,2,3,4-tetrahydro-pyrido[2,3-d]pyrimidin-5-yloxy)-3-fluoro-phenyl]-3-(5-methyl-2-trifluoromethyl-furan-3-yl)-urea]
10 to 100 nM	O=C(Nc1cccc(F)c1)Nc1ccc(Oc2ccnc3c2CNC(=O)N3)c(F)c1 [Example 269, 1-[3-Fluoro-4-(2-oxo-1,2,3,4-tetrahydro-pyrido[2,3-d]pyrimidin-5-yloxy)-phenyl]-3-(3-fluoro-phenyl)-urea]
10 to 100 nM	O=C(Nc1cccc(C(F)(F)F)c1)Nc1ccc(Oc2ccnc3c2CNC(=O)N3)c(F)c1 [Example 270, 1-[3-Fluoro-4-(2-oxo-1,2,3,4-tetrahydro-pyrido[2,3-d]pyrimidin-5-yloxy)-phenyl]-3-(3-trifluoromethyl-phenyl)-urea]
10 to 100 nM	O=C(Nc1ccc([N+](=O)[O-])cc1)Nc1ccc(Oc2ccnc3c2CNC(=O)N3)c(F)c1 [Example 272, 1-[3-Fluoro-4-(2-oxo-1,2,3,4-tetrahydro-pyrido[2,3-d]pyrimidin-5-yloxy)-phenyl]-3-(4-nitro-phenyl)-urea]
< 10 nM	CC(C)c1ccc(NC(=O)Nc2ccc(Oc3ccnc4c3CNC(=O)N4)c(F)c2)cc1 [Example 273, 1-[3-Fluoro-4-(2-oxo-1,2,3,4-tetrahydro-pyrido[2,3-d]pyrimidin-5-yloxy)-phenyl]-3-(4-isopropyl-phenyl)-urea]
100 to 1000 nM	O=C(Nc1ccc(Oc2ccnc3c2CNC(=O)N3)c(F)c1)Nc1ccc(C(F)(F)F)cc1Cl [Example 274, 1-(2-Chloro-4-trifluoromethyl-phenyl)-3-[3-fluoro-4-(2-oxo-1,2,3,4-tetrahydro-pyrido[2,3-d]pyrimidin-5-yloxy)-phenyl]-urea]
100 to 1000 nM	O=C1NCc2c(Oc3ccc(NC(=O)c4cccn(-c5ccc(F)cc5)c4=O)nc3)ccnc2N1 [Example 283, 1-(4-Fluoro-phenyl)-2-oxo-1,2-dihydro-pyridine-3-carboxylic acid [5-(2-oxo-1,2,3,4-tetrahydro-pyrido[2,3-d]pyrimidin-5-yloxy)-pyridin-2-yl]-amide]

Source: US8569295B2, “Bicyclic urea compounds” (Merck Patent GmbH, priority 2009, dated 2013)
